Data set [1] has as its system MvfR regulon. Put plainly: pqsA gene expression (pqsA-GFP reporter). In kind it is cell-based, P. aeruginosa. Particulars: for IC50 / activity at 10 µM / activity at 50 µM: Pseudomonas aeruginosa; for IC50: read-out: IC50 pqsA (μM); for activity at 10 µM: read-out: pqsA @10 uM (%), compound at 10 uM; for activity at 50 µM: read-out: pqsA @50 uM (%), compound at 50 uM.

Data set [2] relates to Caco2 intestinal epithelial cells. Put plainly: Survival of Caco2 cells after compound exposure. It counts as cell-based. Conditions: 25 μM, 3 hours exposure.
Another data set concerns the target T1, MvfR (Pseudomonas aeruginosa, UniProt Q9I4X0).
T1 construct: made in house
In words: Surface plasmon resonance (SPR) binding to purified MvfR co-inducer binding domain. On the set-up: species or system P. aeruginosa. Particulars: SPR. The method, then: Compounds identified to interfere with MvfR were confirmed for the direct physical interaction with this protein. Using SPR, the percentage of compound's binding to the purified MvfR protein was analyzed and used to determine the binding parameters (KD, kon and koff)—thus determining the kinetic of interaction with MvfR.
The recombinant MvfR co-inducer binding domain was purified using Ni-NTA chromatography, as previously reported (see e.g., Xiao et al, Microbiology, 2006, 152:1679-1686; Starkey et al, PLoS Pathog. 2014, 10:e1004321; and Kefala et al, Acta. Crystallogr. Sect. F. Struct. Biol. Cryst. Commun. 2012, 68:695-697). The purified protein was immobilized with the amine coupling method at a target level of 5000 RU on Chip. SPR was performed according to previously reported procedures (see e.g., Starkey et al, PLoS Pathog. 2014, 10:e1004321; Maura et al, ACS Chemical Biology, 2017, 12:1435-1443; and Kitao et al, MBIO, in press). […] Table 3 lists the steady-state KD data measured by SPR.

Data set [3] relates to MvfR regulon. Put plainly: Quantification of pyocyanin (OD520nm of chloroform-extracted cultures). Particulars: for activity at 50 µM: read-out: pyocyanin @50 uM (%), compound at 50 uM; for activity at 1 µM: read-out: pyocyanin @1 uM (%), compound at 1 uM; for activity at 10 µM: read-out: pyocyanin @10 uM (%), compound at 10 uM. In kind it is cell-based, P. aeruginosa.
Data set [4] concerns Pseudomonas aeruginosa MDR clinical isolates. Put plainly: Pyocyanin production in MDR clinical isolates. In kind it is cell-based. Particulars: 10 μM. The method, then: Percentage of pyocyanin production is presented in presence of 10 μM of D57 or D88 compounds. Tukey's multiple comparisons test p<0.0001.
Pyocyanin levels were determined by measuring OD520nm of chloroform-extracted cultures.

Data set [5] relates to MvfR regulon. In words: LC/MS quantification of HAQs and related molecules in bacterial culture supernatants. It counts as cell-based, P. aeruginosa. Conditions: Pseudomonas aeruginosa.
The mark [6] stands for this setting: Steady State Binding Affinity KD (μM), steady state.
Setting [7] is: Steady State Binding Affinity KD [M], steady state.
Setting [8] is: mean KD value, mean over the compounds named.
Where [9] appears, read: Pseudomonas aeruginosa, read-out: IC50 pyocyanin (μM).
[10] abbreviates: compound at 10 uM, listed as D62.
[11] abbreviates: compound at 50 uM, listed as D62.

This is an account of results in patent US11731946B2, “Broad spectrum antivirulence, anti-persistence compounds” (priority 2017, dated 2023).

Molecules are shown by their SMILES.

In general, IC50 refers to the concentration at which inhibition is half-maximal. What is called Kd is the equilibrium constant for the complex coming apart.

T1 sequence (Q9I4X0 91-332): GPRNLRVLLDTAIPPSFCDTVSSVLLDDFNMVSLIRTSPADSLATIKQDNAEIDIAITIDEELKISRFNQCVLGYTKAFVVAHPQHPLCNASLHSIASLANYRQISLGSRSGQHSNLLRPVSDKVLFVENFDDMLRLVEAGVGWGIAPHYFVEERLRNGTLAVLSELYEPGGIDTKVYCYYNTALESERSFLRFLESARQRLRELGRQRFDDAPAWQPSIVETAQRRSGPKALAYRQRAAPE

Turning to `N#Cc1ccc(NC(=O)CC(=O)Nc2ccc(I)cc2)cc1` [Compound 71], the IC50 in the data set with MvfR regulon [1] was found to be 0.72 µM; with MvfR regulon [3] (setting [9]), 1.63 µM. Further, the activity at 10 µM in the data set with MvfR regulon [1] is 13.3%. The activity at 50 µM in the data set on MvfR regulon [1] came to 6.03%; in the data set with MvfR regulon [3] (Pseudomonas aeruginosa), 13.3%. For the same compound, the “toxicity to Caco2 (survival)” value in data set [2] is recorded as “not toxic”. For the same compound, the “Signal Intensity Rmax” value on MvfR turned out to be 30.74. Besides, the “binding intensity relative to parent Compound 1” value on MvfR was 40 times. Also, the Kd on MvfR (setting [6]) was 0.259 µM; at MvfR (setting [7]), 0.259 µM; at MvfR (setting [8]) it was ~0.25 µM.

With `O=C(CC(=O)Nc1ccc([N+](=O)[O-])cc1)Nc1ccc(Oc2ccccc2)cc1` [Compound 73], in the data set with MvfR regulon [1], the IC50 turned out to be 0.21 µM, the activity at 10 µM was determined as 1.95% and the activity at 50 µM worked out at 8.9%. For the same compound, the “Signal Intensity Rmax” value on MvfR came out at 33.31. For the same compound, the Kd on MvfR (setting [6]) was 0.755 µM. For the same compound, binding at MvfR (setting [7]) was put at a Kd of 0.755 µM. The IC50 in the data set with MvfR regulon [3] (setting [9]) stood at 0.398 µM. In the data set on MvfR regulon [3] (Pseudomonas aeruginosa), the activity at 1 µM turned out to be 9.2%, the activity at 10 µM came out at 5.2% and the activity at 50 µM is 5.9%.

On to `O=C(CC(=O)Nc1ccc([N+](=O)[O-])cc1O)Nc1ccc(Oc2ccccc2)cc1` [Compound 76], for which the IC50 with MvfR regulon [1] is 0.42 µM; in the data set on MvfR regulon [3] (setting [9]), 0.368 µM. Also, the activity at 10 µM is 10% with MvfR regulon [1] and 6.17% with MvfR regulon [3] (Pseudomonas aeruginosa). In addition, the activity at 50 µM with MvfR regulon [1] worked out at 6.7%; in the data set on MvfR regulon [3] (Pseudomonas aeruginosa), 5.6%. Moreover, in data set [4], the “activity on pyocyanin production in MDR clinical isolates” value (from here on “activity on pyocyanin production”) was “highly active”. For the same compound, the “Signal Intensity Rmax” value at MvfR worked out at 36.46. The Kd on MvfR (setting [6]) and at MvfR (setting [7]) was 0.478 µM each time. In the data set with MvfR regulon [3] (Pseudomonas aeruginosa), the activity at 1 µM is 10.5%.

With `N#Cc1ccc(NC(=O)CC(=O)Nc2ccc(C#N)c(Cl)c2)cc1` [Compound 110], in the data set on MvfR regulon [1], the activity at 10 µM came out at 1.75% and the activity at 50 µM was 5.61%. At MvfR (setting [8]), this compound registered a Kd of 0.25 µM. In the data set with MvfR regulon [3] (Pseudomonas aeruginosa), the activity at 1 µM was 64.7%, the activity at 10 µM was determined as 6.8% and the activity at 50 µM came to 4.12%.

With `N#Cc1ccc(NC(=O)CC(=O)Nc2ccc([N+](=O)[O-])cc2)cc1` [Compound 65], the IC50 in the data set with MvfR regulon [1] was 2.54 µM; in the data set on MvfR regulon [5] (PA14, read-out: IC50 2-AA (μM)) it was 8.95 µM; with MvfR regulon [5] (PA14, read-out: IC50 DHQ (μM)), 11.3 µM; with MvfR regulon [5] (PA14, read-out: IC50 HHQ (μM)) it was 21.2 µM; with MvfR regulon [5] (PA14, read-out: IC50 PQS (μM)) it was 23 µM; in the data set on MvfR regulon [5] (read-out: IC50 AA (increase; μM)), 34 µM. In addition, the figures for the IC50 with MvfR regulon [5] (read-out: IC50 HQNO (μM)) and in the data set with MvfR regulon [3] (read-out: IC50 pyocyanin) were 23.3 µM and 4.48 µM, respectively. The activity at 50 µM with MvfR regulon [1] was determined as 9.5%; in the data set on MvfR regulon [5] (read-out: 2-AA @50 uM), 6.94%; in the data set with MvfR regulon [5] (read-out: DHQ @50 uM) it was 12.3%; in the data set on MvfR regulon [5] (read-out: HHQ @50 uM (%)), 2.88%; in the data set with MvfR regulon [5] (read-out: HQNO @50 uM (%)) it was 18.4%; in the data set with MvfR regulon [5] (read-out: PQS @50 uM (%)), 6.32%. In addition, the activity at 50 µM in the data set with MvfR regulon [3] (Pseudomonas aeruginosa) was found to be 3.4%. The “toxicity to Caco2 (survival)” value in data set [2] is “not toxic”. Further, the “Signal Intensity Rmax” value on MvfR is on record as 29.51. The Kd at MvfR (setting [6]) and on MvfR (setting [7]) was 0.399 µM each time. Besides, the activity at 1 µM in the data set on MvfR regulon [3] (Pseudomonas aeruginosa) stood at 80.3%. For the same compound, the activity at 10 µM in the data set with MvfR regulon [3] (Pseudomonas aeruginosa) was found to be 29.7%.

Turning to `N#Cc1ccc(NC(=O)CC(=O)Nc2ccc(C#N)cc2)cc1` [Compound 57], the figures for the IC50 in the data set on MvfR regulon [1] and with MvfR regulon [3] (setting [9]) were 0.94 µM and 1.37 µM, respectively. The activity at 50 µM in the data set with MvfR regulon [1] amounted to 8.3%; with MvfR regulon [5] (read-out: 2-AA @50 uM), 20%; in the data set with MvfR regulon [5] (read-out: AA @50 uM), 531%; in the data set on MvfR regulon [5] (read-out: DHQ @50 uM) it was 31.9%; with MvfR regulon [5] (read-out: HHQ @50 uM (%)), 18.1%; in the data set with MvfR regulon [5] (read-out: HQNO @50 uM (%)), 36%. In addition, the activity at 50 µM turned out to be 22.3% with MvfR regulon [5] (read-out: PQS @50 uM (%)) and 8.07% in the data set on MvfR regulon [3] (Pseudomonas aeruginosa). For the same compound, the “Signal Intensity Rmax” value on MvfR was found to be 27.05. Moreover, the “binding intensity relative to parent Compound 1” value at MvfR amounted to 40 times. The Kd at MvfR (setting [6]) was 0.286 µM; at MvfR (setting [7]), 0.286 µM; at MvfR (setting [8]), ~0.25 µM.

Take `N#Cc1ccc(NC(=O)CC(=O)Nc2ccc(Oc3ccccc3)cc2)c(N)c1` [Compound 77]: the “pqsA @10 uM (%)” value in the data set with MvfR regulon [1] (setting [10]) turned out to be 1.51%. In the data set with MvfR regulon [1] (setting [11]), the “pqsA @50 uM (%)” value is 6.20%. Besides, the “activity on pyocyanin production” value in data set [4] is “highly active”. Besides, the “pyocyanin @1 uM (%)” value in the data set on MvfR regulon [3] (compound at 1 uM, listed as D62) is listed as 57.50%. In the data set on MvfR regulon [3] (setting [10]), the “pyocyanin @10 uM (%)” value was found to be 6.17%. The “pyocyanin @50 uM (%)” value in the data set with MvfR regulon [3] (setting [11]) is reported as 7.30%.

Consider `Cc1cc(F)ccc1NCC(=O)Nc1ccc(C#N)cc1` [Compound 1], for which the IC50 is 20.2 µM in the data set on MvfR regulon [1]; 10.4 µM in the data set on MvfR regulon [5] (PA14, read-out: IC50 HHQ (μM)); 15.1 µM in the data set with MvfR regulon [5] (PA14, read-out: IC50 PQS (μM)); 20.3 µM with MvfR regulon [5] (read-out: IC50 HQNO (μM)); 70.6 µM in the data set with MvfR regulon [3] (setting [9]). Further, the activity at 50 µM came to 32.4% in the data set with MvfR regulon [1]; 101% in the data set on MvfR regulon [5] (read-out: 2-AA @50 uM); 100% in the data set with MvfR regulon [5] (read-out: AA @50 uM); 135% in the data set with MvfR regulon [5] (read-out: DHQ @50 uM); 2.67% with MvfR regulon [5] (read-out: HHQ @50 uM (%)); 17% in the data set on MvfR regulon [5] (read-out: HQNO @50 uM (%)). In addition, the results for the activity at 50 µM in the data set on MvfR regulon [5] (read-out: PQS @50 uM (%)) and with MvfR regulon [3] (Pseudomonas aeruginosa) were 10.5% and 66.8%, respectively. In addition, on MvfR, the “Signal Intensity Rmax” value is on record as 23.41. The Kd worked out at 9.18 µM at MvfR (setting [6]) and 9.19 µM on MvfR (setting [7]).

Consider `N#Cc1ccc(NC(=O)CC(=O)Nc2ccc(Oc3ccccc3)cc2)c(O)c1` [Compound 78], for which, in the data set on MvfR regulon [1], the IC50 was 0.938 µM, the activity at 10 µM worked out at 9.63% and the activity at 50 µM stood at 7.3%. Further, in data set [4], the “activity on pyocyanin production” value is on record as “highly active”. Moreover, on MvfR, the “Signal Intensity Rmax” value is 34.69. The affinity at MvfR (setting [6]), expressed as Kd, was 0.494 µM. On MvfR (setting [7]), the Kd is 0.494 µM. Also, in the data set on MvfR regulon [3] (setting [9]), the IC50 was 0.618 µM. Moreover, in the data set with MvfR regulon [3] (Pseudomonas aeruginosa), the activity at 1 µM came to 8.8%, the activity at 10 µM was found to be 5.73% and the activity at 50 µM was found to be 5.9%.

For the compound `N#Cc1ccc(NC(=O)CNC(=O)c2ccc(F)cc2)cc1` [Compound 58], the activity at 10 µM in the data set with MvfR regulon [1] is 11%. Also, the activity at 50 µM with MvfR regulon [1] is 70.7%; with MvfR regulon [5] (read-out: 2-AA @50 uM), 86.6%; in the data set with MvfR regulon [5] (read-out: AA @50 uM) it was 32.3%; in the data set with MvfR regulon [5] (read-out: DHQ @50 uM), 89.8%; with MvfR regulon [5] (read-out: HHQ @50 uM (%)) it was 77.8%; in the data set with MvfR regulon [5] (read-out: HQNO @50 uM (%)) it was 85.9%. The values for the activity at 50 µM with MvfR regulon [5] (read-out: PQS @50 uM (%)) and in the data set with MvfR regulon [3] (Pseudomonas aeruginosa) were 85.1% and 94%, respectively.
